Reference: ChEMBL document CHEMBL3244356, “Synthesis of some pentazocine metabolites and related compounds” (1977)
Active and inactive are the calls of the source. No cut-off for these calls is given here.

Tests used:
Rattus norvegicus [1] = organism: Rattus norvegicus; assay: Antinociceptive activity in rat assessed as protection from p-phenylquinone-induced writhing; assay type: functional
Rattus norvegicus [2] = organism: Rattus norvegicus; assay: Inhibition of meperidine-induced antinociceptive activity in rat by D'Amour-Smith thermal stimulus test; assay type: functional
Rattus norvegicus [3] = assay: Antinociceptive activity in rat at 60 mg/kg, sc by D'Amour-Smith thermal stimulus test; assay type: functional, organism-based; parameters: dose 60 mg/kg
Rattus norvegicus [4] = assay: Inhibition of meperidine-induced antinociceptive activity in rat at 40 mg/kg, sc by D'Amour-Smith thermal stimulus test; assay type: functional, organism-based; parameters: dose 40 mg/kg
Rattus norvegicus [5] = assay: Antinociceptive activity in rat at 120 mg/kg, sc by D'Amour-Smith thermal stimulus test; assay type: functional, organism-based; parameters: dose 120 mg/kg
Rattus norvegicus [6] = assay: Antinociceptive activity in rat assessed as protection from p-phenylquinone-induced writhing at 100 mg/kg, sc; assay type: functional, organism-based; parameters: dose 100 mg/kg
Rattus norvegicus [7] = assay: Inhibition of meperidine-induced antinociceptive activity in rat at 80 mg/kg, sc by D'Amour-Smith thermal stimulus test; assay type: functional, organism-based; parameters: dose 80 mg/kg

SMILES	ED50 (Rattus norvegicus [1]) [mg/kg]	AD50 (Rattus norvegicus [2])	Activity (Rattus norvegicus [5])	further results
C/C(=C\CN1CC[C@@]2(C)c3cc(O)ccc3C[C@@H]1[C@@H]2C)CO (racemic)	37	>320 mg/kg	–	–
C[C@H]1[C@H]2Cc3ccc(O)cc3[C@]1(C)CCN2CC(=O)O (racemic)	–	–	–	Activity (Rattus norvegicus [3]): inactive; inhibition (Rattus norvegicus [4]): inactive
CC(C)=CCN1CC[C@]2(C)c3cc(O)ccc3C[C@H]1[C@H]2C [(+)-PENTAZOCINE]	2.3	3.9 mg/kg	inactive	–
CC(=O)CCN1CC[C@@]2(C)c3cc(O)ccc3C[C@@H]1[C@@H]2C (racemic)	22	1.7 mg/kg	inactive	–
C/C(=C\CN1CC[C@@]2(C)c3cc(O)ccc3C[C@@H]1[C@@H]2C)C(=O)O (racemic)	–	inactive	–	Activity (Rattus norvegicus [6]): inactive
CCOC(=O)CN1CC[C@@]2(C)c3cc(O)ccc3C[C@@H]1[C@@H]2C (racemic)	–	66 mg/kg	inactive	–
CC(C)C(=O)CN1CC[C@@]2(C)c3cc(O)ccc3C[C@@H]1[C@@H]2C (racemic)	–	2.8 mg/kg	–	–
C[C@H]1[C@H]2Cc3ccc(O)cc3[C@]1(C)CCN2CCC(C)(C)O (racemic)	37	–	inactive	inhibition (Rattus norvegicus [7]): inactive
